Results published in paper PMC11774580 (Chemosphere, 2024).
pIC50: −log10 of the molar value. “And” between values parts separate entries of the source, which are not always exact repeats. Equal values may be shown once. Read-outs that look alike come from different tables or passages of the source.

How the values were obtained:
[1] = target: T1, human OAT4 (Homo sapiens, UniProt Q9NSA0); experiment: hOAT4 substrate; format: in vitro ADME; settings: for hOAT4 uptake ratio, % above controls / hOAT4 uptake ratio, fold: 1 μM PFAS screen; for Transporter Uptake Ratio OAT4: 1 μM PFAS, threshold ≥ 2-fold; for Effect of probenecid co-treatment on hOAT4-mediated uptake: probenecid 1 mM
T1 sequence (Q9NSA0 1-550): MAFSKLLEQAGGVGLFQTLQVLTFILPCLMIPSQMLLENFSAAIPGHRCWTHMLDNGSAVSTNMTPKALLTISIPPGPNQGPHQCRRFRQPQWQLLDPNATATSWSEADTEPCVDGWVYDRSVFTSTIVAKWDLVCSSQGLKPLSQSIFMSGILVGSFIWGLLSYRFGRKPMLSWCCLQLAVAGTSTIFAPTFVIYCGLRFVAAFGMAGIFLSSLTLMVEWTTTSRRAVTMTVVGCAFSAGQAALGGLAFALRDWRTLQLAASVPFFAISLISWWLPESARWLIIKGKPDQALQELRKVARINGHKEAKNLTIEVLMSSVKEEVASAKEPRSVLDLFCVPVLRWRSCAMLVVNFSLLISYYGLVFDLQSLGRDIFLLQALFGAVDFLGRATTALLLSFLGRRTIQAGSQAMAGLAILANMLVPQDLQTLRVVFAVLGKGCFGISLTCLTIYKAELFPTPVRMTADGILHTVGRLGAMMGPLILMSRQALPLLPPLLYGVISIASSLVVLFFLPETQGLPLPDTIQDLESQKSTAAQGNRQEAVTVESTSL

[2] = system: MDCKII-LE cell monolayers; experiment: Apparent permeability; settings: donor pH 7.4, receiver pH 7.4; 2 μM PFAS; 90 min; 0.4% BSA in receiver
[3] = target: T2, human OAT3 (Homo sapiens, UniProt Q8TCC7); experiment: hOAT3 substrate; settings: for hOAT3 uptake ratio, % higher than mock transfectants / hOAT3 uptake ratio, fold higher than mock transfected controls: 1 μM PFAS screen; for Transporter Uptake Ratio OAT3: 1 μM PFAS, threshold ≥ 2-fold; for hOAT3-mediated uptake, fold: follow-up test, without probenecid; for Effect of probenecid cotreatment on hOAT3-mediated uptake: probenecid 1 mM
T2 sequence (Q8TCC7 1-542): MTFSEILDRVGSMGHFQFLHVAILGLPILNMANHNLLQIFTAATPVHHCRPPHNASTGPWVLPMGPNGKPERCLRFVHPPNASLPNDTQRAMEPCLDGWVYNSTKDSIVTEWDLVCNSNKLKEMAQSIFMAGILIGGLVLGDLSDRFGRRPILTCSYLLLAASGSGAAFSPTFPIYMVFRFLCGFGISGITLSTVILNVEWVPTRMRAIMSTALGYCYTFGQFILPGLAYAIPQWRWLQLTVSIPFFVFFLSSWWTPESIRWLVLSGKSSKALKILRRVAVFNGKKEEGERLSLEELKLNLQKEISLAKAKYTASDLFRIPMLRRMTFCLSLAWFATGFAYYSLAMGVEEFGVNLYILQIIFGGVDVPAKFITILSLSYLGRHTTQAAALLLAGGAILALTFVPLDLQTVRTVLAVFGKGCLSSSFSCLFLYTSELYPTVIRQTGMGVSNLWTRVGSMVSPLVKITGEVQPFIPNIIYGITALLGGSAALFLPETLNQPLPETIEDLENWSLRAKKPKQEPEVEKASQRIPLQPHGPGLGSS

[4] = target: T2, human OAT3; experiment: OAT3 inhibition assay
[5] = target: T3, human OAT1 (Homo sapiens, UniProt Q4U2R8); experiment: OAT1 inhibition assay
T3 sequence (Q4U2R8 1-563): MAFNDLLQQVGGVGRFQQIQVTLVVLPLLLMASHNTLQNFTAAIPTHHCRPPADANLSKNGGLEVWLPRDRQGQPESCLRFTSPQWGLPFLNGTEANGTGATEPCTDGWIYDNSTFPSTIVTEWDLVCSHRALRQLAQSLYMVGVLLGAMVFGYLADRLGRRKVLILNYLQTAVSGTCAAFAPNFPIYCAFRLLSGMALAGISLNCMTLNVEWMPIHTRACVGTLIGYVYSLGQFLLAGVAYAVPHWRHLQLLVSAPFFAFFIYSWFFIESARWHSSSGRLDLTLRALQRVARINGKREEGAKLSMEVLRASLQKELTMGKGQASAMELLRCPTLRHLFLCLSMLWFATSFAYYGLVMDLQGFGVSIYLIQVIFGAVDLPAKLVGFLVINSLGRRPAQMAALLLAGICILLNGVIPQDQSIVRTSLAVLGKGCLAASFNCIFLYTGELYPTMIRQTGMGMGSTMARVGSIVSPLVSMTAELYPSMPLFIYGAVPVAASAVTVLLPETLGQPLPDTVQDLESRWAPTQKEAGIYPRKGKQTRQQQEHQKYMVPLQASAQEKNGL

[6] = target: T3, human OAT1; experiment: hOAT1 substrate; settings: for Transporter Uptake Ratio OAT1: 1 μM PFAS, threshold ≥ 2-fold; for hOAT-mediated uptake (Fig. 3A, OAT1), fold: follow-up test, without probenecid
[7] = read-out: IC50 hOAT3 inhibition, probe [3H]-ES 0.1 μM, 30 min pre-incubation

| SMILES | OAT4 substrate classification [1] | Ph 7.4 A-B Papp [2] | Transporter Uptake Ratio OAT4 [1] | Effect of probenecid co-treatment on hOAT4-mediated uptake [1] | hOAT3 uptake ratio, fold higher than mock transfected controls [3] | Transporter Uptake Ratio OAT3 [3] | hOAT3-mediated uptake, fold [3] | Effect of probenecid cotreatment on hOAT3-mediated uptake [3] | hOAT4 uptake ratio, fold [1] | further results |
| --- | --- | --- | --- | --- | --- | --- | --- | --- | --- | --- |
| O=S(=O)(O)C(F)(F)C(F)(F)C(F)(F)C(F)(F)C(F)(F)C(F)(F)C(F)(F)C(F)(F)F [PFOS, perfluorooctane sulfonic acid] | relatively weak substrate | 14 ×10⁻⁶ cm/s and 14.04 ×10⁻⁶ cm/s | – | – | – | – | – | – | – | hOAT4 uptake ratio, % above controls [1]: ~ 20%; hOAT3 uptake ratio, % higher than mock transfectants [3]: 30–50% |
| O=C(O)C(F)(F)C(F)(F)C(F)(F)C(F)(F)C(F)(F)C(F)(F)C(F)(F)C(F)(F)C(F)(F)F [PFDA, perfluorodecanoic acid] | – | 8.44 ×10⁻⁶ cm/s | – | – | – | – | – | – | – | hOAT3 substrate classification [3]: weak substrate; hOAT3 uptake ratio, % higher than mock transfectants [3]: 30–50% |
| O=C(O)C(F)(F)C(F)(F)C(F)(F)F [PFBA, Perfluorobutanoic acid] | – | 0.93 ×10⁻⁶ cm/s | – | – | – | – | – | – | – | Some level of inhibition against hOAT3 mediated transport [4]: the only exceptions; Some level of inhibition against hOAT1 mediated transport [5]: the only exceptions; hOAT3 substrate classification [3]: weak substrate; hOAT3 uptake ratio, % higher than mock transfectants [3]: 30–50%; hOAT3 uptake ratio ([3]; statistically significant, below 2-fold cut-off): 1.5 |
| O=C(O)C(F)(F)C(F)(F)C(F)(F)C(F)(F)C(F)(F)F [PFHxA, perfluorohexanoic acid] | strong substrates | 1.16 ×10⁻⁶ cm/s | + (denoted with a “+” to denote a threshold of ≥ 2-fold has been met and considered a substrate for the transporter) | effectively inhibited | 2.5–12 fold | + (denoted with a “+” to denote a threshold of ≥ 2-fold has been met and considered a substrate for the transporter) | 2.5–15 fold | markedly inhibited | – | hOAT4 uptake ratio, % above controls [1]: ~ 20%; hOAT1 uptake ratio, fold higher than the control ([6]; 1 μM PFAS screen): ~ 2 fold; Transporter Uptake Ratio OAT1 [6]: + (denoted with a “+” to denote a threshold of ≥ 2-fold has been met and considered a substrate for the transporter); hOAT-mediated uptake (Fig. 3A, OAT1), fold [6]: ~ 2 fold; Effect of probenecid co-treatment on hOAT1-mediated uptake ([6]; probenecid 1 mM): markedly reduced |
| O=C(O)C(F)(F)C(F)(F)C(F)(F)C(F)(F)F [PFPA, perfluoropentanoic acid] | – | 0.99 ×10⁻⁶ cm/s | – | effectively inhibited | 2.5–12 fold | + (denoted with a “+” to denote a threshold of ≥ 2-fold has been met and considered a substrate for the transporter) | 2.5–15 fold | markedly inhibited | – | – |
| O=C(O)C(F)(F)C(F)(F)C(F)(F)C(F)(F)C(F)(F)C(F)(F)C(F)(F)C(F)(F)F [PFNA, perfluorononanoic acid] | strong substrates | 3.77 ×10⁻⁶ cm/s | + (denoted with a “+” to denote a threshold of ≥ 2-fold has been met and considered a substrate for the transporter) | effectively inhibited | 2.5–12 fold | + (denoted with a “+” to denote a threshold of ≥ 2-fold has been met and considered a substrate for the transporter) | 2.5–15 fold | markedly inhibited | greater than 2 fold | pIC50 [4, 7]: 5.01 |
| O=S(=O)(O)C(F)(F)C(F)(F)C(F)(F)C(F)(F)C(F)(F)C(F)(F)F [PFHxS, perfluorohexane sulfonic acid] | strong substrates | – | + (denoted with a “+” to denote a threshold of ≥ 2-fold has been met and considered a substrate for the transporter) | not inhibited | 2.5–12 fold | + (denoted with a “+” to denote a threshold of ≥ 2-fold has been met and considered a substrate for the transporter) | 2.5–15 fold | markedly inhibited | greater than 2 fold | Fold difference in OAT4 uptake ratio between PFHxS and PFOS ([1]; PFHxS versus PFOS): ~ 2.5 fold; pIC50 [4]: 4.99 |
| O=S(=O)(O)C(F)(F)C(F)(F)C(F)(F)C(F)(F)F [PFBS, Perfluorobutane sulfonic acid] | strong substrates | 1.38 ×10⁻⁶ cm/s | + (denoted with a “+” to denote a threshold of ≥ 2-fold has been met and considered a substrate for the transporter) | effectively inhibited | 2.5–12 fold | + (denoted with a “+” to denote a threshold of ≥ 2-fold has been met and considered a substrate for the transporter) | 2.5–15 fold | markedly inhibited | greater than 2 fold | hOAT1 uptake ratio, % higher than controls ([6]; 1 μM PFAS screen): 5–60% |
| O=S(=O)(O)CCC(F)(F)C(F)(F)C(F)(F)C(F)(F)C(F)(F)C(F)(F)F [6:2FTS, 6:2 fluorotelomer sulfonate] | – | 0.71 ×10⁻⁶ cm/s | + (denoted with a “+” to denote a threshold of ≥ 2-fold has been met and considered a substrate for the transporter) | – | 2.5–12 fold | + (denoted with a “+” to denote a threshold of ≥ 2-fold has been met and considered a substrate for the transporter) | 2.5–15 fold | – | greater than 2 fold | pIC50 [4, 7]: 4.95; Transporter Uptake Ratio OAT1 [6]: + (denoted with a “+” to denote a threshold of ≥ 2-fold has been met and considered a substrate for the transporter); hOAT-mediated uptake (Fig. 3A, OAT1), fold [6]: ~ 4 fold |
| O=C(O)C(F)(F)C(F)(F)C(F)(F)C(F)(F)C(F)(F)C(F)(F)C(F)(F)C(F)(F)C(F)(F)C(F)(F)F [PFUDA, perfluoroundecanoic acid] | – | 11.56 ×10⁻⁶ cm/s | – | – | – | – | – | – | – | – |
| O=C(O)C(F)(F)C(F)(F)C(F)(F)C(F)(F)C(F)(F)C(F)(F)C(F)(F)F [PFOA, perfluorooctanoic acid] | strong substrates | 1.46 ×10⁻⁶ cm/s | + (denoted with a “+” to denote a threshold of ≥ 2-fold has been met and considered a substrate for the transporter) | effectively inhibited | 2.5–12 fold | + (denoted with a “+” to denote a threshold of ≥ 2-fold has been met and considered a substrate for the transporter) | 2.5–15 fold | markedly inhibited | greater than 2 fold | pIC50 [4]: 5.05; pIC50 [5]: 3.78 to 4.29; hOAT1 uptake ratio, % higher than controls ([6]; 1 μM PFAS screen): 5–60% |
